Test results published in patent publication US11926610B1, “9-(2-hydroxypyridin-3-yl)10-(2-hydroxyethyl)-3,6-diphenyl-3,4,6,7,9,10-hexahydroacridine1,8(2H,5H)-dione as an antimicrobial compound” (KING FAISAL UNIVERSITY, priority 2023, dated 2024).

Assays:
Type in all cases: cell-based
Settings in all cases: after 10, 20, 40 and 60 minutes at all dilutions 1:100, 1:200, 1:400, 1:800
Escherichia coli = test: Antimicrobial screening by agar dilution, Escherichia coli
Procedure: (§1) The antibacterial properties of the synthesized compound 9-(2-hydroxypyridin-3-yl)-10-(2-hydroxyethyl)-3,6-diphenyl-3,4,6,7,9,10-hexahydroacridine1,8(2H,5H)-dione were studied by the method of agar dilution. Test solutions of each compound was prepared in concentration of 1% using dimethylformamide as a solvent then they are diluted in physiological solution to obtain the final experimental dilutions 1:100, 1:200, 1:400, 1:800. The effect of these substances are compared with furacillin in a controllable study. The testing microbes used were gram positive bacteria Staphylococcus aureus, gram negative bacteria Pseudomonas aeruginosa and Escherichia coli and Candida albicans fungus. The experiments used for this survey were meat-pentonlu agar (EPA) for cultivation of bacteria and Saburo environment for the fungus. Each experiment used 1 mL of test solution on each plate […]. Two drops of emulsified with microbes feel were added. All experimental samples were taken from the agar after 10, 20, 40, 60 minutes in the environment on the basis of Patrk planted. The bacteria were cultivated at a temperature of 37° C. for 1 day and the mushroom was kept in a thermostat for 2 hours at a temperature of 28° C. Then results were checked.

Candida albicans = test: Antimicrobial screening by agar dilution, Candida albicans
Procedure: as §1

Staphylococcus aureus = test: Antimicrobial screening by agar dilution, Staphylococcus aureus
Procedure: as §1

Pseudomonas aeruginosa = test: Antimicrobial screening by agar dilution, Pseudomonas aeruginosa
Procedure: as §1

Measured: inhibition activity (in words)

O=C1CC(c2ccccc2)CC2=C1C(c1cccnc1O)C1=C(CC(c3ccccc3)CC1=O)N2CCO (stereo not shown) [9-(2-hydroxypyridin-3-yl)-10-(2-hydroxyethyl)-3,6-diphenyl-3,4,6,7,9,10-hexahydroacridine1,8(2H,5H)-dione]
highest inhibition activity: all assays above
